According to the supplement of paper PMC11061612:

Columns and labels:
[1] = test system: TT (Thyroid Gland Carcinoma); assay: combination Emax (second highest fraction inhibited in the dose matrix, 72 h); higher = more inhibition; extreme values may be limits of the assay
How it was run: (§1)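 Cell lines grown in DMEM/F12 or RPMI with 10% FBS were plated in 1536-well plates and held 24 hours at 37°C, 5% CO2 before 72 hours of exposure to two-drug dose matrices, with DMSO typically at 0.2%. CellTiter-Glo 2.0 luminescence gave viability, which was converted to inhibition. Vehicle wells were set to 0 and blank wells to 1. Combination Emax is the second-highest inhibition in the matrix, and Bliss excess is the observed combination effect minus the expected EA + EB − EA·EB, where EA and EB are the single-agent effects.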

FU97 (Gastric Carcinoma) [2] = assay: as above
How it was run: as §1

[3] = test system: VCaP (Prostate Carcinoma); assay: as above
How it was run: as §1

[4] = test system: CAPAN-2 (Pancreatic Carcinoma); assay: as above
How it was run: as §1

[5] = test system: ONS-76 (Other Solid Carcinomas); assay: as above
How it was run: as §1

[6] = test system: CCK-81 (Colorectal Carcinoma); assay: as above
How it was run: as §1

[7] = test system: KARPAS-422 (B-Cell Non-Hodgkin's Lymphoma); assay: as above
How it was run: as §1

IGR-37 (Melanoma) [8] = assay: as above
How it was run: as §1

[9] = test system: BICR22 (Oral Cavity Carcinoma); assay: as above
How it was run: as §1

[10] = test system: PANC-10-05 (Pancreatic Carcinoma); assay: as above
How it was run: as §1

U-2-OS (Osteosarcoma) [11] = assay: as above
How it was run: as §1

[12] = test system: NCI-H1666 (Lung Adenocarcinoma); assay: as above
How it was run: as §1

[13] = test system: COLO-320-HSR (Colorectal Carcinoma); assay: as above
How it was run: as §1

[14] = test system: ECC10 (Gastric Carcinoma); assay: as above
How it was run: as §1

[15] = test system: NCI-H2066 (Squamous Cell Lung Carcinoma); assay: as above
How it was run: as §1

[16] = test system: NCI-H1581 (Non-Small Cell Lung Carcinoma); assay: as above
How it was run: as §1

NY (Osteosarcoma) [17] = assay: as above
How it was run: as §1

[18] = test system: NCI-H64 (Small Cell Lung Carcinoma); assay: as above
How it was run: as §1

[19] = test system: TT (Thyroid Gland Carcinoma); assay: Bliss excess, mean over the matrix (fraction); higher = more synergy
How it was run: as §1

FU97 (Gastric Carcinoma) [20] = assay: as above
How it was run: as §1

[21] = test system: VCaP (Prostate Carcinoma); assay: as above
How it was run: as §1

[22] = test system: CAPAN-2 (Pancreatic Carcinoma); assay: as above
How it was run: as §1

[23] = test system: ONS-76 (Other Solid Carcinomas); assay: as above
How it was run: as §1

[24] = test system: CCK-81 (Colorectal Carcinoma); assay: as above
How it was run: as §1

[25] = test system: KARPAS-422 (B-Cell Non-Hodgkin's Lymphoma); assay: as above
How it was run: as §1

IGR-37 (Melanoma) [26] = assay: as above
How it was run: as §1

[27] = test system: BICR22 (Oral Cavity Carcinoma); assay: as above
How it was run: as §1

[28] = test system: PANC-10-05 (Pancreatic Carcinoma); assay: as above
How it was run: as §1

U-2-OS (Osteosarcoma) [29] = assay: as above
How it was run: as §1

[30] = test system: NCI-H1666 (Lung Adenocarcinoma); assay: as above
How it was run: as §1

[31] = test system: COLO-320-HSR (Colorectal Carcinoma); assay: as above
How it was run: as §1

[32] = test system: ECC10 (Gastric Carcinoma); assay: as above
How it was run: as §1

[33] = test system: NCI-H2066 (Squamous Cell Lung Carcinoma); assay: as above
How it was run: as §1

[34] = test system: NCI-H1581 (Non-Small Cell Lung Carcinoma); assay: as above
How it was run: as §1

NY (Osteosarcoma) [35] = assay: as above
How it was run: as §1

[36] = test system: NCI-H64 (Small Cell Lung Carcinoma); assay: as above
How it was run: as §1
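For Bliss excess, mean over the matrix in this document: after 72 h of two-drug dosing.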

Row | Structure (SMILES) | combination Emax [1] | combination Emax (FU97 (Gastric Carcinoma) [2]) | combination Emax [3] | combination Emax [4] | combination Emax [5] | combination Emax [6] | combination Emax [7] | combination Emax (IGR-37 (Melanoma) [8]) | combination Emax [9] | combination Emax [10] | combination Emax (U-2-OS (Osteosarcoma) [11]) | combination Emax [12] | combination Emax [13] | combination Emax [14] | combination Emax [15] | combination Emax [16] | combination Emax (NY (Osteosarcoma) [17]) | combination Emax [18] | Bliss excess [19] | Bliss excess (FU97 (Gastric Carcinoma) [20]) | Bliss excess [21] | Bliss excess [22] | Bliss excess [23] | Bliss excess [24] | Bliss excess [25] | Bliss excess (IGR-37 (Melanoma) [26]) | Bliss excess [27] | Bliss excess [28] | Bliss excess (U-2-OS (Osteosarcoma) [29]) | Bliss excess [30] | Bliss excess [31] | Bliss excess [32] | Bliss excess [33] | Bliss excess [34] | Bliss excess (NY (Osteosarcoma) [35]) | Bliss excess [36]
1 | C[C@@H](Nc1cc(F)cc(F)c1)c1cc(C(=O)N(C)C)cc2c(=O)cc(N3CCOCC3)oc12 [AZD8186] + CC(=O)c1c(C)c2cnc(Nc3ccc(N4CCNCC4)cn3)nc2n(C2CCCC2)c1=O [Palbociclib] (first compound max 10 µM, 7x7, partner max 10 µM) | 0.416 | 0.386 | 0.371 | 0.213 | 0.424 | 0.418 | 0.707 | 0.464 | 0.192 | 0.383 | 0.391 | 0.454 | 0.382 | 0.661 | 0.319 | 0.651 | 0.408 | 0.469 | 0.0582 | 0.0755 | 0.0706 | 0.0182 | 0.0763 | 0.0824 | 0.018 | 0.0795 | -0.0275 | -0.0689 | 0.0498 | -0.0433 | 0.0312 | 0.08 | -0.0299 | 0.085 | 0.0895 | 0.0127
2 | O=C(c1cc(Cc2n[nH]c(=O)c3ccccc23)ccc1F)N1CCN(C(=O)C2CC2)CC1 [Olaparib] + Cc1c2c(nn1C)CSCc1cc(n(C)n1)CSc1cc(c3ccccc3c1)OCCCc1c(C(=O)O)n(C)c3c-2c(Cl)ccc13 [AZD5991] (first compound max 10 µM, 7x7, partner max 1 µM) | 0.168 | 0.207 | 0.958 | 0.044 | 0.17 | 0.785 | 0.967 | 0.151 | 0.108 | 0.159 | 0.0686 | 0.111 | 0.836 | 0.738 | 0.2 | 0.972 | 0.426 | 0.148 | -0.0273 | -0.0169 | -0.0247 | -0.0426 | -0.038 | -0.0311 | -0.0071 | -0.0419 | -0.0317 | -0.0739 | -0.0394 | -0.0669 | -0.0304 | 0.0111 | -0.0539 | 0.0183 | -0.0239 | 0.0017
3 | CC1(C)CCC(CN2CCN(c3ccc(C(=O)NS(=O)(=O)c4ccc(NCC5CCOCC5)c([N+](=O)[O-])c4)c(Oc4cnc5[nH]ccc5c4)c3)CC2)=C(c2ccc(Cl)cc2)C1 [Venetoclax] + CS(=O)(=O)CCNCc1ccc(-c2ccc3ncnc(Nc4ccc(OCc5cccc(F)c5)c(Cl)c4)c3c2)o1 [Lapatinib] (first compound max 1 µM, 7x7, partner max 10 µM) | 0.121 | 0.813 | 0.109 | 0.115 | 0.228 | 0.892 | 0.884 | 0.253 | 0.21 | 0.353 | 0.0668 | 0.568 | 0.169 | 0.94 | 0.352 | 0.242 | 0.226 | 0.21 | -0.0344 | 0.0218 | -0.0449 | -0.0425 | -0.0055 | -0.0352 | 0.049 | 0.0223 | -0.0287 | -0.0426 | -0.044 | -0.0214 | -0.0048 | 0.0105 | -0.0203 | -0.0136 | -0.0008 | -0.0068
